Where two headings read alike, the source gives them in different places.
Test system: human osteosarcoma DM77
Type: in vivo
Settings: for Tumor Volume Data (Day 21) Median / ΔT/ΔC % / ΔT/ΔC: day 21; for MTTE / T-C: volume endpoint 1400 mm^3
Experimental: In the reported examples supporting this invention, vials of the clinical formulation of cabazitaxel and docetaxel were used. […] The resultant solution contains 10 mg/mL of cabazitaxel. Stock solution of cabazitaxel was then diluted in 0.9% sodium chloride.
This efficacy may be quantified, for example, as changes in tumor volume for each treated (T) and control (C) group, which are calculated for each animal and each day by subtracting the tumor volume on the day of first treatment (staging day) from the tumor volume on the specified observation day. This allows calculating the tumor growth inhibition: ΔT/ΔC=(median delta T/median delta C)×100. Individual tumor volume changes from baseline are thereafter analyzed by a non-parametric two-way ANOVA-TYPE (with factors: group and repeated days) followed by a post-hoc contrasts analysis, with Bonferroni-Holm adjustment for multiplicity, comparing all treated groups to the control group. […] A probability less than 5% (p<0.05) was considered as significant.
Based on the National Cancer Institute (NCl) standards, a ΔT/ΔC≦40% is the minimal level required to declare activity.
This efficacy may also be quantified by the number of tumor regressions observed after therapy. Individual mice reporting a tumor volume ≦50% of the Day 0 measurement for two consecutive measurements over a seven day period were considered partial responders (PR). Individual mice lacking palpable tumors (<4×4 mm^2 for two consecutive measurements over a seven day period) were classified as complete responders (CR); a CR that persisted until study completion was considered a tumor-free survivor (TFS).
Efficacy could also be determined at study completion, using tumor growth delay (T-C) in days, which is calculated using the median time to endpoint (MTTE) value for each treatment (T) group versus control (C). A Log Rank multiple comparison test with Bonferroni-Holm adjustment for multiplicity was applied on individual TTE to compare the treated groups to the control group.
The efficacy of cabazitaxel in comparison with docetaxel on pediatric patient-derived tumor xenografts was determined experimentally in the following manner:
The animals subjected to the experiment are subcutaneously grafted unilaterally with approximately 30 mg of a tumor fragment from low passage pediatric patient-derived tumor xenografts. The animals are implanted with a human patient-derived pediatric tumor xenografted in immuno-compromised mice (Harlan; nu/nu). Several days post tumor implantation, mice are randomized according to their tumor burden to the different groups of treatments and controls. The agents are dosed intravenously at 5.8, 9.3, 15 or 24.2 mg/kg every 4 days for a total of 3 doses (q4d×3) to mice bearing a tumor burden at start of therapy (day 0) ranged from 125 to 250 mm^3.
Beginning Day 0, animals were observed daily and weighed twice weekly using a digital scale; data including individual and mean gram weights (Mean We±SD), mean percent weight change versus Day 0 were recorded for each group. Animal deaths were recorded daily and designated as drug-related (D), technical (T), tumor related (B), or unknown (U) based on weight loss and gross observation; single agent or combination groups reporting a mean >20% for a period of 7 days and/or >10% mortality were considered above the maximum tolerated dose (MTD) for that treatment on the evaluated regimen.
The selected tumor model, DM77, was a low passage patient-derived tumor xenograft derived from an osteosarcoma taken from the lung of a patient. […]

CO[C@H]1C(=O)[C@]2(C)[C@@H](OC)C[C@H]3OC[C@@]3(OC(C)=O)[C@H]2[C@H](OC(=O)c2ccccc2)[C@]2(O)C[C@H](OC(=O)[C@H](O)[C@@H](NC(=O)OC(C)(C)C)c3ccccc3)C(C)=C1C2(C)C [Cabazitaxel, 4α-acetoxy-2α-benzoyloxy-5β,20-epoxy-1β-hydroxy-7β,10β-dimethoxy-9-oxo-11-taxen-13α-yl (2R,3S)-3-tert-butoxycarbonyl-amino-2-hydroxy-3-phenylpropionate]
#CR (5.8 mg/kg i.v./q4dx3): 0/0/0 | #PR (5.8 mg/kg i.v./q4dx3): 0/0/0 | #TFS (5.8 mg/kg i.v./q4dx3): 0/0/0 | Drug Deaths Total (5.8 mg/kg i.v./q4dx3): 0 | Weight Change at Nadir % (5.8 mg/kg i.v./q4dx3): −5% | Weight Change at Nadir Day (5.8 mg/kg i.v./q4dx3): 11 days | Tumor Volume Data (Day 21) Median (5.8 mg/kg i.v./q4dx3): 333 mm^3 | ΔT/ΔC % (5.8 mg/kg i.v./q4dx3): 14.1% | MTTE (5.8 mg/kg i.v./q4dx3): 49 days | T-C (5.8 mg/kg i.v./q4dx3): 24 days | ΔT/ΔC (5.8 mg/kg q4d×3 IV): 14.1% | tumor volume changes from baseline, Median +/− nMAD (5.8 mg/kg, DAY 4): 47 +/− 47 | tumor volume changes from baseline, Median +/− nMAD (5.8 mg/kg, DAY 7): 121 +/− 80 | tumor volume changes from baseline, Median +/− nMAD (5.8 mg/kg, DAY 11): 162 +/− 89 | tumor volume changes from baseline, Median +/− nMAD (5.8 mg/kg, DAY 14): 162 +/− 97 | tumor volume changes from baseline, Median +/− nMAD (5.8 mg/kg, DAY 18): 195 +/− 122 | tumor volume changes from baseline, Median +/− nMAD (5.8 mg/kg, DAY 21): 129 +/− 129 | tumor volume changes from baseline, Median +/− nMAD (5.8 mg/kg, DAY 25): 96 +/− 115 | tumor volume changes from baseline, Median +/− nMAD (5.8 mg/kg, DAY 28): 96 +/− 115 | tumor volume changes from baseline, Median +/− nMAD (5.8 mg/kg, DAY 32): 96 +/− 109 | tumor volume changes from baseline, Median +/− nMAD (5.8 mg/kg, DAY 35): 169 +/− 182 | tumor volume changes from baseline, Median +/− nMAD (5.8 mg/kg, DAY 39): 239 +/− 172.5 | tumor volume changes from baseline, Median +/− nMAD (5.8 mg/kg, DAY 42): 240 +/− 162 | tumor volume changes from baseline, Median +/− nMAD (5.8 mg/kg, DAY 46): 364.5 +/− 226 | tumor volume changes from baseline, Median +/− nMAD (5.8 mg/kg, DAY 49): 402 +/− 254 | tumor volume changes from baseline, Median +/− nMAD (5.8 mg/kg, DAY 53): 706 +/− 516 | tumor volume changes from baseline, Median +/− nMAD (5.8 mg/kg, DAY 56): 878 +/− 602.5 | #CR (9.3 mg/kg i.v./q4dx3): 0 | #PR (9.3 mg/kg i.v./q4dx3): 2 | #TFS (9.3 mg/kg i.v./q4dx3): 0 | Drug Deaths Total (9.3 mg/kg i.v./q4dx3): 0 | Weight Change at Nadir % (9.3 mg/kg i.v./q4dx3): −8% | Weight Change at Nadir Day (9.3 mg/kg i.v./q4dx3): 11 days | Tumor Volume Data (Day 21) Median (9.3 mg/kg i.v./q4dx3): 131 mm^3 | ΔT/ΔC % (9.3 mg/kg i.v./q4dx3): 0% | MTTE (9.3 mg/kg i.v./q4dx3): >60 days | T-C (9.3 mg/kg i.v./q4dx3): >35 days | numbers of PR (9.3 mg/kg q4d×3 IV): 2/9 | ΔT/ΔC (9.3 mg/kg q4d×3 IV): 0% | tumor volume changes from baseline, Median +/− nMAD (9.3 mg/kg, DAY 4): 54 +/− 54 | tumor volume changes from baseline, Median +/− nMAD (9.3 mg/kg, DAY 7): 73 +/− 73 | tumor volume changes from baseline, Median +/− nMAD (9.3 mg/kg, DAY 11): 19 +/− 35 | tumor volume changes from baseline, Median +/− nMAD (9.3 mg/kg, DAY 14): 19 +/− 35 | tumor volume changes from baseline, Median +/− nMAD (9.3 mg/kg, DAY 18): 0 +/− 33 | tumor volume changes from baseline, Median +/− nMAD (9.3 mg/kg, DAY 21): 0 +/− 34 | tumor volume changes from baseline, Median +/− nMAD (9.3 mg/kg, DAY 25): −19 +/− 26 | tumor volume changes from baseline, Median +/− nMAD (9.3 mg/kg, DAY 28): −45 +/− 26 | tumor volume changes from baseline, Median +/− nMAD (9.3 mg/kg, DAY 32): −45 +/− 26 | tumor volume changes from baseline, Median +/− nMAD (9.3 mg/kg, DAY 35): −66 +/− 7 | tumor volume changes from baseline, Median +/− nMAD (9.3 mg/kg, DAY 39): −66 +/− 7 | tumor volume changes from baseline, Median +/− nMAD (9.3 mg/kg, DAY 42): −66 +/− 7 | tumor volume changes from baseline, Median +/− nMAD (9.3 mg/kg, DAY 46): −66 +/− 7 | tumor volume changes from baseline, Median +/− nMAD (9.3 mg/kg, DAY 49): −66 +/− 7 | tumor volume changes from baseline, Median +/− nMAD (9.3 mg/kg, DAY 53): −47 +/− 25 | tumor volume changes from baseline, Median +/− nMAD (9.3 mg/kg, DAY 56): −47 +/− 26 | #CR (15 mg/kg i.v./q4dx3): 0 | #PR (15 mg/kg i.v./q4dx3): 6 | #TFS (15 mg/kg i.v./q4dx3): 0 | Drug Deaths Total (15 mg/kg i.v./q4dx3): 0 | Weight Change at Nadir % (15 mg/kg i.v./q4dx3): −9% | Weight Change at Nadir Day (15 mg/kg i.v./q4dx3): 11 days | Tumor Volume Data (Day 21) Median (15 mg/kg i.v./q4dx3): 78 mm^3 | ΔT/ΔC % (15 mg/kg i.v./q4dx3): −9.3% | MTTE (15 mg/kg i.v./q4dx3): >60 days | T-C (15 mg/kg i.v./q4dx3): >35 days | tumor volume changes from baseline, Median +/− nMAD (15 mg/kg, DAY 4): 0 +/− 0 (n = 9) | tumor volume changes from baseline, Median +/− nMAD (15 mg/kg, DAY 7): 0 +/− 25 | tumor volume changes from baseline, Median +/− nMAD (15 mg/kg, DAY 11): −53 +/− 19 | tumor volume changes from baseline, Median +/− nMAD (15 mg/kg, DAY 14): −53 +/− 27 | tumor volume changes from baseline, Median +/− nMAD (15 mg/kg, DAY 18): −73 +/− 20 | tumor volume changes from baseline, Median +/− nMAD (15 mg/kg, DAY 21): −85 +/− 13 | tumor volume changes from baseline, Median +/− nMAD (15 mg/kg, DAY 25): −85 +/− 13 | tumor volume changes from baseline, Median +/− nMAD (15 mg/kg, DAY 28): −85 +/− 13 | tumor volume changes from baseline, Median +/− nMAD (15 mg/kg, DAY 32): −85 +/− 19 | tumor volume changes from baseline, Median +/− nMAD (15 mg/kg, DAY 35): −85 +/− 19 | tumor volume changes from baseline, Median +/− nMAD (15 mg/kg, DAY 39): −85 +/− 38 | tumor volume changes from baseline, Median +/− nMAD (15 mg/kg, DAY 42): −85 +/− 38 | tumor volume changes from baseline, Median +/− nMAD (15 mg/kg, DAY 46): −85 +/− 38 | tumor volume changes from baseline, Median +/− nMAD (15 mg/kg, DAY 49): −85 +/− 38 | tumor volume changes from baseline, Median +/− nMAD (15 mg/kg, DAY 53): −85 +/− 38 | tumor volume changes from baseline, Median +/− nMAD (15 mg/kg, DAY 56): −85 +/− 38 | #CR (24.2 mg/kg i.v./q4dx3): 1 | #PR (24.2 mg/kg i.v./q4dx3): 5 | #TFS (24.2 mg/kg i.v./q4dx3): 1 | Drug Deaths Total (24.2 mg/kg i.v./q4dx3): 0 | Weight Change at Nadir % (24.2 mg/kg i.v./q4dx3): −15% | Weight Change at Nadir Day (24.2 mg/kg i.v./q4dx3): 14 days | Tumor Volume Data (Day 21) Median (24.2 mg/kg i.v./q4dx3): 101.5 mm^3 | ΔT/ΔC % (24.2 mg/kg i.v./q4dx3): −6.9% | MTTE (24.2 mg/kg i.v./q4dx3): >60 days | T-C (24.2 mg/kg i.v./q4dx3): >35 days | tumor volume changes from baseline, Median +/− nMAD (24.2 mg/kg, DAY 4): 22 +/− 22 | tumor volume changes from baseline, Median +/− nMAD (24.2 mg/kg, DAY 7): 0 +/− 9.5 | tumor volume changes from baseline, Median +/− nMAD (24.2 mg/kg, DAY 11): −26.5 | tumor volume changes from baseline, Median +/− nMAD (24.2 mg/kg, DAY 14): −29.5 | tumor volume changes from baseline, Median +/− nMAD (24.2 mg/kg, DAY 18): −61.5 +/− 27 | tumor volume changes from baseline, Median +/− nMAD (24.2 mg/kg, DAY 21): −63 +/− 25.5 | tumor volume changes from baseline, Median +/− nMAD (24.2 mg/kg, DAY 25): −69.5 | tumor volume changes from baseline, Median +/− nMAD (24.2 mg/kg, DAY 28): −60 +/− 28.5 | tumor volume changes from baseline, Median +/− nMAD (24.2 mg/kg, DAY 32): −60 +/− 28.5 | tumor volume changes from baseline, Median +/− nMAD (24.2 mg/kg, DAY 35): −60 +/− 35 | tumor volume changes from baseline, Median +/− nMAD (24.2 mg/kg, DAY 39): −60 +/− 35 | tumor volume changes from baseline, Median +/− nMAD (24.2 mg/kg, DAY 42): −71 +/− 46.5 | tumor volume changes from baseline, Median +/− nMAD (24.2 mg/kg, DAY 46): −71 +/− 46.5 | tumor volume changes from baseline, Median +/− nMAD (24.2 mg/kg, DAY 49): −71 +/− 43 | tumor volume changes from baseline, Median +/− nMAD (24.2 mg/kg, DAY 53): −64.5 +/− 45.5 | tumor volume changes from baseline, Median +/− nMAD (24.2 mg/kg, DAY 56): −64.5 +/− 46.5 | antitumor activity compared with docetaxel (conclusion of example 4, dose equivalent basis): more efficacious than docetaxel at both mid doses
